The record followed here is patent publication US20240180160A1, “ANTIVIRAL POLYMER MATERIAL” (VALE BROTHERS LIMITED, priority 2021, published 2024).

For series [1], the system named is Feline coronavirus ATCC VR-989. Conditions: 0.7% Formaldehyde. As for the experimental part: (§1) In addition, the formaldehyde cytotoxicity of neutralised formaldehyde is determined to measure assay sensitivity.
(§2) TCID50 was determined by the method of Karber (1Kärber, G.: Beitrag zur Kollektiven Behandlung Pharmakologischer Reihenversuche. Arch. Exp. Path. Pharmak. 162 (1931): 480-487.). Test virus suspension has at least a concentration which allows the determination of a 4 log10 reduction of the virus titre. The number of infectious virus particles is quantified by using the Median Tissue Culture Infectious Dose (TCID50) assay. The assay works by adding a serial dilution of the virus sample to cells in a 96 well plate format. The type of cell is specifically selected to show a cytopathic effect (CPE), i.e. morphological changes upon infection with the virus or cell death. After an incubation period, the cells are inspected for CPE or cell death and each well is classified as infected or not infected. Colorimetric or fluorometric readouts are also possible, which can increase assay sensitivity. The dilution, at which 50% of the wells show a CPE, is used to calculate the TCID50 of the virus sample. This calculation can generally be done by a variety of mathematical approaches, e.g., the Spearman-Karber method or the Reed-Muench method. Virus quantity is expressed as TCID50/ml.

The next series has as its system CRFK cells. Briefly: Cytotoxicity control on the titration cells. Conditions: 0.7% Formaldehyde, neutralised. The protocol: as §1, §2

Read-outs that look alike come from different tables or passages of the source.

For the compound `C=O` [Formaldehyde, formaldehyde], in series [1] (exposure time 30 mins), the “TCID50/ml (recovered virus)” value was determined as 3.16E+02 TCID50/ml, the “log (TCID50/ml)” value amounted to 2.50 log and the log difference was 3.17 log. For the same compound, in series [1] (exposure time 60 mins), the “TCID50/ml (recovered virus)” value stood at 3.16E+02 TCID50/ml, the “log (TCID50/ml)” value is 2.50 log and the log difference came out at 3.17 log. Moreover, in the series with CRFK cells, the “Cytotoxicity TCID50/ml” value was found to be 3.16E+02 TCID50/ml and the “Cytotoxicity log (TCID50/ml)” value is given as 2.50 log.
